Laboratory results as given in ChEMBL document CHEMBL4354831, “Novel Cell-Penetrating Peptide Conjugated Proteasome Inhibitors: Anticancer and Antifungal Investigations” (J Med Chem, 2020).
≈ marks a conversion by molar mass, not a printed value. Calls of active or inactive are those of the source. The rule behind the calls is not given here. Peptide text beside a SMILES is read from it.

Legend:
HeLa [1] = test: Antiproliferative activity against human HeLa cells assessed as reduction in cell viability after 48 hrs by MTT assay; assay type: functional, cell-based
BE(2)-C [2] = test: Antiproliferative activity against human BE(2)-C cells assessed as reduction in cell viability after 48 hrs by MTT assay; assay type: functional, cell-based
BE(2)-C [3] = test: Antiproliferative activity against human BE(2)-C cells assessed as reduction in cell viability in presence of cisplatin after 48 hrs by MTT assay; assay type: functional, cell-based
HeLa [4] = test: Synergistic antiproliferative activity against human HeLa cells assessed as FICI in presence of cisplatin after 48 hrs by MTT assay; assay type: functional
BE(2)-C [5] = test: Synergistic antiproliferative activity against human BE(2)-C cells assessed as FICI in presence of cisplatin after 48 hrs by MTT assay; assay type: functional
HeLa [6] = test: Ratio of IC50 for antiproliferative activity against human HeLa cells to IC50 for antiproliferative activity against human HeLa in presence of cisplatin; assay type: functional
BE(2)-C [7] = test: Ratio of IC50 for antiproliferative activity against human BE(2)-C cells to IC50 for antiproliferative activity against human BE(2)-C cells in presence of cisplatin; assay type: functional
20S proteasome = test: Inhibition of human 20S proteasome using Suc-LLVY-AMC as substrate measured every 5 mins for 120 mins by fluorescence based assay; assay type: protein-complex assay
[8] = target: T1, 20S proteasome (Homo sapiens) (UniProt P49721+P20618+P28074+P28062+P28065+P28072+P25786+P25787+P25788+P25789+P28066+P60900+O14818+Q8TAA3+P40306+A5LHX3+P49720+P28070+Q99436); test: Inhibition of 20S proteasome in human HeLa cells at 2xIC50 using LLVY-R110 peptide as substrate measured up to 36 hrs by fluorescence based assay; assay type: cell-based
[9] = target: T1, 20S proteasome (Homo sapiens); test: Inhibition of 20S proteasome in human BE(2)-C cells at 2xIC50 using LLVY-R110 peptide as substrate measured up to 36 hrs by fluorescence based assay; assay type: cell-based
[10] = target: T1, 20S proteasome (Homo sapiens); test: Potency index, ratio of ixazomib IC50 to compound IC50 for inhibition of human 20S proteasome using Suc-LLVY-AMC as substrate measured every 5 mins for 120 mins by fluorescence based assay; assay type: protein-complex assay
HeLa [11] = test: Induction of membrane disruption in human HeLa cells assessed as red fluorescence at 2xIC50 after 24 hrs by SYTO9/PI-staining based inverted fluorescence microscopic analysis; settings: Cell membrane
BE(2)-C [12] = test: Induction of membrane disruption in human BE(2)-C cells assessed as red fluorescence at 2xIC50 after 24 hrs by SYTO9/PI-staining based inverted fluorescence microscopic analysis; settings: Cell membrane
HeLa [13] = test: Induction of membrane disruption in human HeLa cells assessed as membrane lysis at 2xIC50 after 24 hrs by SYTO9/PI-staining based inverted fluorescence microscopic analysis; settings: Cell membrane
BE(2)-C [14] = test: Induction of membrane disruption in human BE(2)-C cells assessed as membrane lysis at 2xIC50 after 24 hrs by SYTO9/PI-staining based inverted fluorescence microscopic analysis; settings: Cell membrane
HeLa [15] = test: Induction of membrane disruption in human HeLa cells assessed as membrane blebbing at 2xIC50 after 24 hrs by SYTO9/PI-staining based inverted fluorescence microscopic analysis; settings: Cell membrane
HeLa [16] = test: Induction of apoptosis in human HeLa cells assessed as DNA damage at 2xIC50 after 24 hrs by SYTO9/PI-staining based inverted fluorescence microscopic analysis; assay type: functional, cell-based
HeLa [17] = test: Induction of apoptosis in human HeLa cells assessed as condensed chromatin at 2xIC50 after 24 hrs by Hoechst-33342 staining based inverted fluorescence microscopic analysis; assay type: functional, cell-based
BE(2)-C [18] = test: Induction of apoptosis in human BE(2)-C cells assessed as condensed chromatin at 2xIC50 after 24 hrs by Hoechst-33342 staining based inverted fluorescence microscopic analysis; assay type: functional, cell-based
HeLa [19] = test: Induction of apoptosis in human HeLa cells at 2xIC50 after 24 hrs by Annexin-V alexa fluor 488/PI staining based fluorescence microscopic analysis; assay type: functional, cell-based
HeLa [20] = test: Induction of apoptosis in human HeLa cells assessed as apoptotic cells at 2xIC50 after 24 hrs by Alexa flour 488 annexin V/PI- staining based flow cytometric analysis relative to control; assay type: functional
HeLa [21] = test: Induction of apoptosis in human HeLa cells assessed as DNA damage at 2xIC50 after 24 hrs by Hoechst-33342 staining based inverted fluorescence microscopic analysis; assay type: functional, cell-based
BE(2)-C [22] = test: Induction of apoptosis in human BE(2)-C cells assessed as DNA damage at 2xIC50 after 24 hrs by Hoechst-33342 staining based inverted fluorescence microscopic analysis; assay type: functional, cell-based
HeLa [23] = test: Induction of ROS generation in human HeLa cells after 24 hrs by DCFH-DA staining based fluorescence analysis; assay type: functional, cell-based
HeLa [24] = test: Induction of ROS generation in human HeLa cells at 0.4 to 200 uM after 24 hrs in presence of ROS quencher, ascorbic acid by DCFH-DA staining based fluorescence analysis; assay type: functional, cell-based
BE(2)-C [25] = test: Induction of ROS generation in human BE(2)-C cells at 0.4 to 200 uM after 24 hrs in presence of ROS quencher, ascorbic acid by DCFH-DA staining based fluorescence analysis; assay type: functional, cell-based
BE(2)-C [26] = test: Induction of ROS generation in human BE(2)-C cells at 2xIC50 by DCFH-DA staining based fluorescence analysis; assay type: functional, cell-based; settings: TDE = time-dependent effect
HeLa [27] = test: Induction of pore formation in human HeLa cell membrane at 2xIC50 after 12 hrs by SEM analysis; assay type: cell-based
BE(2)-C [28] = test: Induction of pore formation in human BE(2)-C cell membrane at 2xIC50 after 12 hrs by SEM analysis; assay type: functional, cell-based
BE(2)-C [29] = test: Induction of membrane disruption in human BE(2)-C cells assessed as increase in cell debris with damaged membrane at 2xIC50 after 12 hrs by SEM analysis; assay type: cell-based
Candida albicans SC5314 = test: Inhibition of Candida albicans SC5314 proteasome at antifungal MIC after 12 hrs by fluorescence based analysis
Candida albicans [30] = test: Antifungal activity against Candida albicans SC5314 after 48 hrs; assay type: functional; settings: SC5314, 48 h
Candida albicans [31] = test: Potentiation of amphotericin B-induced antifungal activity against Candida albicans SC5314 assessed as amphotericin MIC after 24 to 48 hrs by checker board assay; assay type: functional
Candida albicans [32] = test: Synergistic antifungal activity against Candida albicans SC5314 assessed as FICI in presence of amphotericin B after 24 to 48 hrs by checker board assay; assay type: functional
Candida albicans [33] = test: Ratio of MIC for antifungal activity against Candida albicans SC5314 to MIC for antifungal activity against Candida albicans SC5314 in presence of amphotericin B after 24 to 48 hrs by checker board assay; assay type: functional
Candida albicans [34] = test: Potentiation of amphotericin B-induced antifungal activity against Candida albicans SC5314 assessed as fold reduction in amphotericin MIC after 24 to 48 hrs by checker board assay relative to amphotericin alone; assay type: functional
Candida albicans [35] = test: Antibiofilm activity against Candida albicans SC5314 assessed as inhibition of biofilm formation after 24 hrs by XTT-dye based assay; assay type: functional
Candida albicans [36] = test: Induction of hyphal disruption in Candida albicans SC5314 assessed as hyphal debris at 2xMBEC by SEM analysis; assay type: organism-based; settings: Hyphae

Row | Compound | IC50 (HeLa [1]) [µM] | IC50 (BE(2)-C [2]) [µM] | IC50 (BE(2)-C [3]) [µM] | fractional inhibitory concentration index (FICI) (HeLa [4]) | fractional inhibitory concentration index (FICI) (BE(2)-C [5]) | Ratio IC50 (HeLa [6]) | Ratio IC50 (BE(2)-C [7]) | IC50 (20S proteasome) [µM] | inhibition [8] | inhibition [9] | Ratio IC50 [10] | Activity (HeLa [11]) | Activity (BE(2)-C [12]) | Activity (HeLa [13]) | Activity (BE(2)-C [14]) | Activity (HeLa [15]) | Activity (HeLa [16]) | Activity (HeLa [17]) | Activity (BE(2)-C [18]) | Activity (HeLa [19]) | further results
1 | CC(=O)N[C@@H](Cc1ccc(O)cc1)C(=O)NCC(=O)N[C@@H](CCCNC(=N)N)C(=O)N[C@@H](CCCCN)C(=O)N[C@@H](CCCCN)C(=O)N[C@@H](CCCNC(=N)N)C(=O)N[C@@H](CCCNC(=N)N)C(=O)N[C@@H](CCC(N)=O)C(=O)N[C@@H](CCCNC(=N)N)C(=O)N[C@@H](CCCNC(=N)N)C(=O)N[C@@H](CCCNC(=N)N)C(=O)NCC(=O)NCC(=O)NCC(=O)N[C@@H](CC(C)C)C(=O)N[C@@H](CC(C)C)C(=O)N[C@H](C=O)CC(C)C (Ac-YGRKKRRQRRRGGGLLL-aldehyde) | 10.2 | 10.3 | 4.19 | 0.34 | 0.79 | 5 | 2.5 | 0.0025 | Active | Active | 6 | Active | Active | Active | Active | Active | Active | Active | Active | Active | Activity (HeLa [20]): 72.9%; Activity (HeLa [21]): Active; Activity (BE(2)-C [22]): Active; Activity (HeLa [23]): Dose-dependent effect; Activity (HeLa [24]): inactive; Activity (BE(2)-C [25]): inactive; Activity (BE(2)-C [26]): Tde; Activity (HeLa [27]): Active; Activity (BE(2)-C [28]): Active; Activity (BE(2)-C [29]): Active; inhibition (Candida albicans SC5314): Active; MIC (Candida albicans [30]): 31.2 µM (≈ 65.5 µg/mL); MIC (Candida albicans [31]): 0.25 µM; fractional inhibitory concentration index (FICI) (Candida albicans [32]): 0.36; Ratio (Candida albicans [33]): 5; fold change (FC) (Candida albicans [34]): 6; MBIC (Candida albicans [35]): 15.6 µM; Activity (Candida albicans [36]): Active
2 | CC(=O)N[C@@H](Cc1ccc(O)cc1)C(=O)NCC(=O)N[C@@H](CCCNC(=N)N)C(=O)N[C@@H](CCCCN)C(=O)N[C@@H](CCCCN)C(=O)N[C@@H](CCCNC(=N)N)C(=O)N[C@@H](CCCNC(=N)N)C(=O)N[C@@H](CCC(N)=O)C(=O)N[C@@H](CCCNC(=N)N)C(=O)N[C@@H](CCCNC(=N)N)C(=O)N[C@@H](CCCNC(=N)N)C(=O)NCC(=O)NCC(=O)NCC(=O)N[C@@H](Cc1ccc(O)cc1)C(=O)N[C@@H](CC(C)C)C(=O)N[C@@H](Cc1ccccc1)C(=O)N[C@H](C=O)CC(C)C (Ac-YGRKKRRQRRRGGGYLFL-aldehyde) | 4.7 | 4.7 | 1.58 | 0.33 | 0.49 | 4 | 4 | 0.00428 to 0.0043 | Active | Active | 4 | Active | Active | Active | Active | Active | Active | Active | Active | Active | Activity (HeLa [20]): 80.5%; Activity (HeLa [21]): Active; Activity (BE(2)-C [22]): Active; Activity (HeLa [23]): Dose-dependent effect; Activity (HeLa [24]): inactive; Activity (BE(2)-C [25]): inactive; Activity (BE(2)-C [26]): Tde; Activity (HeLa [27]): Active; Activity (BE(2)-C [28]): Active; Activity (BE(2)-C [29]): Active; inhibition (Candida albicans SC5314): Active; MIC (Candida albicans [30]): 15.6 µM (≈ 35.8 µg/mL); MIC (Candida albicans [31]): 0.25 µM; fractional inhibitory concentration index (FICI) (Candida albicans [32]): 0.35; Ratio (Candida albicans [33]): 5; fold change (FC) (Candida albicans [34]): 6; MBIC (Candida albicans [35]): 7.8 µM; Activity (Candida albicans [36]): Active
